Assay results reported in the OligoGym collection.
Bases are written 5' to 3'; sugars and linkages follow in the same order, as letters with counts (s phosphorothioate, o phosphodiester; PS: all linkages phosphorothioate). C may stand for cytosine or 5-methylcytosine; the collection does not tell. l = locked nucleic acid (LNA); d = 2'-deoxy (DNA)

Target: HIF1A
Test: HeLa, 100 nM transfected, 24 h, mean of 3
Details: ASO

| Sequence | caspase activation (% of PBS control) |
| --- | --- |
| TGGCAAGCATCCT (sugars lldlddddddldl, PS) | 369 |
| GTTACTGCCTTCTTAC (sugars l2 d2 l1 d6 l5, PS) | 365 |
| TGGCAAGCATCCTGTA (sugars l5 d6 l5, PS) | 445 |
| GTTACTGCCTTCTTAC (sugars l2 d10 l1 d1 l2, PS) | 128 |
| TTACTGCCTTCTT (sugars l1 d10 l2, PS) | 102 |
| GTTACTGCCTTCTTAC (sugars l2 d10 l2 d1 l1, PS) | 151 |
| TGGCAAGCATCCTGTA (sugars lddldddddddlddll, PS) | 271 |
| GTTACTGCCTTCTTAC (sugars l4 d7 l1 d1 l3, PS) | 253 |
| GTTACTGCCTTCTTAC (sugars ldldldddddddldll, PS) | 214 |
| TGGCAAGCATCCTGTA (sugars l1 d1 l1 d11 l2, PS) | 135 |
| TGGCAAGCATCCTGTA (sugars l2 d1 l2 d10 l1, PS) | 401 |
| GTTACTGCCTTCTTAC (sugars l1 d3 l1 d6 l5, PS) | 359 |
| GTTACTGCCTTCTTAC (sugars l1 d14 l1, PS) | 102 |
| GTTACTGCCTTCTTAC (sugars lllldddddddldldl, PS) | 281 |
| GTTACTGCCTTCTTAC (sugars l1 d1 l3 d6 l5, PS) | 616 |
| GTTACTGCCTTCT (sugars l1 d1 l2 d6 l3, PS) | 239 |
| TGGCAAGCATCCTGTA (sugars l1 d2 l1 d9 l3, PS) | 254 |
| GTTACTGCCTTCTTAC (sugars l2 d9 l3 d1 l1, PS) | 333 |
| TGGCAAGCATCCTGTA (sugars lddlldddddddlldl, PS) | 409 |
| TACTGCCTTCTTA (sugars l3 d8 l2, PS) | 317 |
| TGGCAAGCATCCTGTA (sugars lldllddddddldddl, PS) | 385 |
| GTTACTGCCTTCTTAC (sugars ldlllddddddldddl, PS) | 453 |
| GTTACTGCCTTCTTAC (sugars ldldlddddddlldll, PS) | 250 |
| GGCAAGCATCCTG (sugars l4 d8 l1, PS) | 604 |
| GTTACTGCCTTCTTAC (sugars l2 d1 l2 d8 l3, PS) | 318 |

| Sequence | caspase activation (% of PBS control) |
| --- | --- |
| GTTACTGCCTTCTTAC (sugars l1 d11 l1 d1 l2, PS) | 117 |
| GTTACTGCCTTCTTAC (sugars l2 d13 l1, PS) | 102 |
| GTTACTGCCTTCTTAC (sugars l2 d9 l2 d1 l2, PS) | 223 |
| TGGCAAGCATCCTGTA (sugars l1 d10 l2 d1 l2, PS) | 444 |
| TGGCAAGCATCCTGTA (sugars l5 d10 l1, PS) | 403 |
| TGGCAAGCATCCTGTA (sugars ldldldddddddddll, PS) | 210 |
| TGGCAAGCATCCTGTA (sugars llddlddddddddldl, PS) | 215 |
| GTTACTGCCTTCTTAC (sugars lddllddddddllldl, PS) | 414 |
| TGGCAAGCATCCTGTA (sugars l4 d7 l1 d1 l3, PS) | 522 |
| TGGCAAGCATCCTGTA (sugars lldldddddddlldll, PS) | 410 |
| GTTACTGCCTTCTTAC (sugars l3 d8 l1 d1 l3, PS) | 197 |
| GTTACTGCCTTCTTAC (sugars l5 d7 l1 d2 l1, PS) | 446 |
| TGGCAAGCATCCTGTA (sugars l3 d8 l1 d3 l1, PS) | 230 |
| TGGCAAGCATCCTGTA (sugars ldddlddddddllldl, PS) | 224 |
| TGGCAAGCATCCTGTA (sugars ldlddddddddllddl, PS) | 197 |
| GCAAGCATCCTGT (sugars l2 d10 l1, PS) | 279 |
| GTTACTGCCTTCT (sugars l2 d1 l1 d6 l3, PS) | 183 |
| TGGCAAGCATCCTGTA (sugars l3 d1 l1 d6 l5, PS) | 536 |
| GTTACTGCCTTCTTAC (sugars ldldddddddddlddl, PS) | 118 |
| TGGCAAGCATCCTGTA (sugars l5 d7 l4, PS) | 358 |
| GTTACTGCCTTCTTAC (sugars lldlddddddddlddl, PS) | 135 |
| TGGCAAGCATCCT (sugars l1 d11 l1, PS) | 123 |
| ACTGCCTTCTTAC (sugars l1 d9 l3, PS) | 140 |
| TGGCAAGCATCCTGTA (sugars llldlddddddllddl, PS) | 268 |
| TGGCAAGCATCCTGTA (sugars ldlllddddddlddll, PS) | 410 |
